Experimental findings from article PMC5639367, “Structure‐Guided Design of Peptides as Tools to Probe the Protein–Protein Interaction between Cullin‐2 and Elongin BC Substrate Adaptor in Cullin RING E3 Ubiquitin Ligases” (Chemmedchem, 2017) are described below.

Like-named read-outs stand apart in the source and are kept apart here. Square brackets hold non-standard residues; d marks the D form. Ends that are not written are not given here. Peptide text beside a SMILES is read from it. Chg = N[C@H](C(=O)O)C1CCCCC1; Pen = CC(C)(S)[C@H](N)C(=O)O; Phg = N[C@H](C(=O)O)c1ccccc1; Tle = CC(C)(C)[C@H](N)C(=O)O; Nva = CCC[C@H](N)C(=O)O

The target in one series is T1, VBC (Homo sapiens, UniProt P40337+Q15369+Q15370).
T1 construct: made in house; host or cells: E. coli BL21(DE3)
Briefly: Biolayer interferometry (BLI) binding of peptides to immobilised VBC. The protocol:
Biolayer interferometry: BLI experiments were performed in an Octet RED384 (FòrteBio). Biotinylated VBC (25 μg mL^−1) was immobilized on Super Streptavidin‐coated biosensor (FòrteBio). The experiments were conducted at 25 °C, in 20 mM HEPES pH 7.6, 100 mM NaCl, 1 mM DTT and 0.02 % (v/v) Tween‐20 buffer. The response of the reference tips was subtracted from the signal to account for unspecific binding. The data points were fitted using a 1:1 model. […]
peptides. Biotinylated VBC was immobilised on the tips and the peptides were tested in a concentration range from 27 µM to 7 mM. The different colours represent the different concentrations and corresponding responses. The assay was performed […]
Figure S2 – Biolayer interferomery experiments with the alanine scan peptides.
Biotinylated VBC was immobilised on the tips and the peptides were tested in a concentration range from 27 µM to 7 mM. The different colours represent the different concentrations and corresponding responses. The assay was performed in […]
leucine replacement versus VBC tested on a concentration-dependent assay. […]
(BLI is a label-free optical method that tracks binding on a fibre tip over time.)

A short description of series [1]: Precipitation of peptides in the conditions of the BLI experiment. The note with it: 20 mM HEPES pH 7.6, 100 mM NaCl, 1 mM DTT, 0.02 % Tween-20, 25 °C; visual. In kind it is physicochemical. The protocol:
Based on the structural analysis of the Cul2‐VBC interface, we first aimed to recapitulate the interaction using N‐terminal Cul2 peptides varying from three to eleven residues. […] Thus, the next step was to enhance the binding affinity of the peptides toward VBC.
Biolayer interferometry: BLI experiments were performed in an Octet RED384 (FòrteBio). Biotinylated VBC (25 μg mL^−1) was immobilized on Super Streptavidin‐coated biosensor (FòrteBio). The experiments were conducted at 25 °C, in 20 mM HEPES pH 7.6, 100 mM NaCl, 1 mM DTT and 0.02 % (v/v) Tween‐20 buffer. The response of the reference tips was subtracted from the signal to account for unspecific binding. The data points were fitted using a 1:1 model.

In series [2] the target is T2, native interaction between VBC and Cul2 (Homo sapiens, UniProt P40337+Q15369+Q15370).
T2 construct: made in house; host or cells: E. coli BL21(DE3) for VBC
The experiment in a line: AlphaLISA competition assay to displace Cul2 from VBC. In kind it is binding. The conditions noted are these: V6×HisBC 500 nM, biotinylated Rbx1-Cul2 150 nM. The protocol:
AlphaLISA: Anti‐His6 acceptor beads and Streptavidin donor beads (PerkinElmer) were used. […] The final volume of each well was 20 μL. The plate was then read in a PHERAstar FS (BMG LABTECH). Each of the competitors was titrated in quadruplicate. The fitting and IC50 determination were performed in GraphPad Prism 7 (GraphPad Software, La Jolla, CA, USA).
(Alpha assays give light when donor and acceptor beads are brought close together.)

[3] abbreviates: 8-mer peptide variants replacing Leu3, BLI, biotinylated VBC on Super Streptavidin biosensor, peptides 27 µM to 7 mM, 20 mM HEPES pH 7.6, 100 mM NaCl, 1 mM DTT, 0.02% Tween-20, 25 °C, 1:1 model, read-out: K d.

As to `CSCC[C@H](N)C(=O)N[C@@H](CO)C(=O)N[C@H](C(=O)N[C@@H](CCCCN)C(=O)N1CCC[C@H]1C(=O)N[C@@H](CCCNC(=N)N)C(=O)N[C@H](C(=O)N[C@H](C(N)=O)C(C)C)C(C)C)c1ccccc1` [H] (H-MS[Phg]KPRVV-NH2), at VBC (setting [3]), the Kd was 2100 ± 600 µM.

For MSYKPRVV-NH2 [D], the Kd at VBC (setting [3]) came out at 7400 ± 400 µM.

On to `CSCC[C@H](N)C(=O)N[C@@H](CO)C(=O)N[C@H](C(=O)N[C@@H](CCCCN)C(=O)N1CCC[C@H]1C(=O)N[C@@H](CCCNC(=N)N)C(=O)N[C@H](C(=O)N[C@H](C(N)=O)C(C)C)C(C)C)C(C)(C)C` [G] (H-MS[Tle]KPRVV-NH2), for which the Kd at VBC (setting [3]) amounted to 900 ± 100 µM.

The compound MSLKPRAV-NH2 had a Kd on VBC of 2100 ± 600 µM.

With MSFKPRVV-NH2 [C], the Kd on VBC (setting [3]) amounted to 3100 ± 200 µM.

In the case of `CCC[C@H](NC(=O)[C@H](CO)NC(=O)[C@@H](N)CCSC)C(=O)N[C@@H](CCCCN)C(=O)N1CCC[C@H]1C(=O)N[C@@H](CCCNC(=N)N)C(=O)N[C@H](C(=O)N[C@H](C(N)=O)C(C)C)C(C)C` [F] (H-MS[Nva]KPRVV-NH2), the Kd at VBC (setting [3]) was determined as 1900 ± 200 µM.

As to MSLKPRVVDFD [11‐mer], in series [1], the “Precipitation in the conditions of the BLI experiment (in words)” value is “formed a white precipitate”.

As for `CSCC[C@H](N)C(=O)N[C@@H](CO)C(=O)N[C@H](C(=O)N[C@@H](CCCCN)C(=O)N1CCC[C@H]1C(=O)N[C@@H](CCCNC(=N)N)C(=O)N[C@H](C(=O)N[C@H](C(N)=O)C(C)C)C(C)C)C1CCCCC1` [I] (H-MS[Chg]KPRVV-NH2), the Kd at VBC (setting [3]) was determined as 8900 ± 700 µM.

`CSCC[C@H](N)C(=O)N[C@@H](CO)C(=O)N[C@H](C(=O)N[C@@H](CCCCN)C(=O)N1CCC[C@H]1C(=O)N[C@@H](CCCNC(=N)N)C(=O)N[C@H](C(=O)N[C@H](C(N)=O)C(C)C)C(C)C)C(C)(C)S` [Peptide J] (H-MS[Pen]KPRVV-NH2): the “Displacement of Cul2 from VBC in AlphaLISA (in words)” value in series [2] is “displace Cul2”.

On to MSLKPRVVD [9‐mer], for which, in series [1], the “Precipitation in the conditions of the BLI experiment (in words)” value is on record as “formed a white precipitate”.
